The results in this text go back to patent US20110195900A1, “PEPTIDIC PTH RECEPTOR AGONISTS” (FERRING B.V., priority 2008, published 2011).

For assay [1], the target named is T1, human PTH-2 receptor (Homo sapiens, UniProt P49190).
T1 construct: expressed in transfected cells
As to the kind of experiment: Luciferase-based transcriptional reporter gene assay for selectivity. It is filed as cell-based. A digest of the protocol:
(§1)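 HEK-293 cells transiently transfected with SV40-driven human PTH-1 receptor and CRE-luciferase reporter, exposed to serial compound dilutions for 4-5 h, then lysed for luciferase readout; efficacy and EC50 by non-linear regression, PTH (1-34) as internal control, n≥3. Selectivity measured in analogous human PTH-2 receptor luciferase reporter assays.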

The target in assay [2] is T2, human PTH-1 receptor (Homo sapiens, UniProt Q03431).
T2 construct: expressed in transfected cells; host or cells: HEK-293
T2 sequence (Q03431 27-593): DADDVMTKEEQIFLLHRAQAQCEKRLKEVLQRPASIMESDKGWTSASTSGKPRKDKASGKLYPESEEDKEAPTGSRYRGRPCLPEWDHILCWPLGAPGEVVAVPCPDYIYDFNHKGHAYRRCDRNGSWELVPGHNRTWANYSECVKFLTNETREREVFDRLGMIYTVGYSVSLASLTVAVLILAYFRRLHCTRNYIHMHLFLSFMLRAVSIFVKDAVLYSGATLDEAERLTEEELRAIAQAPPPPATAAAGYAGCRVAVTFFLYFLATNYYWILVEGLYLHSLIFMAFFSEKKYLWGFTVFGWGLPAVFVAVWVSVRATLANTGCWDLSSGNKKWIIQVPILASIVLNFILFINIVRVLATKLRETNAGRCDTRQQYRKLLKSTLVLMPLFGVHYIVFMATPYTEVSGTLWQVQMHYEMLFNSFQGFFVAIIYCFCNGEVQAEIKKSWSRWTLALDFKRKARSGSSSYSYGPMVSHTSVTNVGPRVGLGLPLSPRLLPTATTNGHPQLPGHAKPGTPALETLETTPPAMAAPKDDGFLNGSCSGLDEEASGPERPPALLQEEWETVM
As to the kind of experiment: Reporter gene assay (CRE-luciferase) for agonist activity in transiently transfected HEK-293 cells. In kind it is cell-based. As to conditions: for hPTHR-2/hPTHR-1: Table 3, ratio of EC50 values, selectivity for hPTH-1 receptor over hPTH-2 receptor. A digest of the protocol:
as §1

Structures are written as SMILES. Non-standard residues stand in square brackets, D forms with d. Residues, ends and D or L forms follow the SMILES beside them. 1Nal = N[C@@H](Cc1cccc2ccccc12)C(=O)O; β3hI = CC[C@H](C)[C@H](N)CC(=O)O; Nle = CCCC[C@H](N)C(=O)O

T1 sequence (P49190 25-550): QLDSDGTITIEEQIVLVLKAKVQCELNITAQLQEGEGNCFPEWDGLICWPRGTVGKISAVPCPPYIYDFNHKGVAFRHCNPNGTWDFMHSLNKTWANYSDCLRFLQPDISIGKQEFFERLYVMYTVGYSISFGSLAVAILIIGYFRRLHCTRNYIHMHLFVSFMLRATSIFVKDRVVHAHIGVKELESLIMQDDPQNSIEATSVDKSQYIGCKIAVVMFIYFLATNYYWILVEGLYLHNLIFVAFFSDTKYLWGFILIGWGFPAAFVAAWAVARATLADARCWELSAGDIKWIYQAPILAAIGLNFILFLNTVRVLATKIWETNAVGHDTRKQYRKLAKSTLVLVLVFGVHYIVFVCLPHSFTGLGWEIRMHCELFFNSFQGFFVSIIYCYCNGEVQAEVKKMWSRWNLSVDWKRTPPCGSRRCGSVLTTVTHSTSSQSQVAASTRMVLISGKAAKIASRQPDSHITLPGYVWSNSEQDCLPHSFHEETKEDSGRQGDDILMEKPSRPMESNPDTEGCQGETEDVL

The term EC50 denotes the concentration giving half of the maximal effect. With `CCCC[C@H](NC(=O)[C@H](CC(C)C)NC(=O)[C@H](CCC(N)=O)NC(=O)[C@@H](NC(=O)[C@H](CCC(=O)O)NC(=O)[C@H](CO)NC(=O)[C@@H](NC(=O)[C@@H](N)CO)C(C)C)[C@@H](C)CC)C(=O)N[C@@H](Cc1c[nH]cn1)C(=O)N[C@@H](CC(N)=O)C(=O)N[C@@H](CC(C)C)C(=O)NCC(=O)N[C@@H](CCCCN)C(=O)N[C@@H](Cc1c[nH]cn1)C(=O)N[C@@H](CC(C)C)C(=O)N[C@@H](CC(N)=O)C(=O)N[C@@H](CO)C(=O)N[C@H](CC(=O)N[C@@H](CCC(=O)O)C(=O)N[C@@H](CCCNC(=N)N)C(=O)N[C@H](C(=O)N[C@@H](CCC(=O)O)C(=O)N[C@@H](Cc1cccc2ccccc12)C(=O)N[C@@H](CC(C)C)C(=O)N[C@@H](CCCNC(=N)N)C(=O)N[C@@H](CCCCN)C(=O)N[C@@H](CC(C)C)C(=O)N[C@@H](CC(C)C)C(=O)N[C@@H](CCC(N)=O)C(=O)N[C@@H](Cc1c[nH]cn1)C(=O)N[C@H](C(=O)N[C@@H](Cc1c[nH]cn1)C(=O)N[C@@H](CC(N)=O)C(=O)N[C@@H](Cc1ccccc1)C(N)=O)C(C)C)C(C)C)[C@@H](C)CC` [SEQ ID NO: 25, [Nle^8, β-hIle^18,1-Nal^23, Leu^27, His^30] hPTH (1-34)-NH2] (H-SVSEIQL[Nle]HNLGKHLNS[β3hI]ERVE[1Nal]LRKLLQHVHNF-NH2), the EC50 in assay [1] was determined as 13 nM. Also, in assay [2], the response was half-maximal at 0.18 nM (EC50) and the hPTHR-2/hPTHR-1 amounted to 72.
`CCCC[C@H](NC(=O)[C@H](CC(C)C)NC(=O)[C@H](CCC(N)=O)NC(=O)[C@@H](NC(=O)[C@H](CCC(=O)O)NC(=O)[C@H](CO)NC(=O)[C@@H](NC(=O)[C@@H](N)CO)C(C)C)[C@@H](C)CC)C(=O)N[C@@H](Cc1c[nH]cn1)C(=O)N[C@@H](CC(N)=O)C(=O)N[C@@H](CC(C)C)C(=O)NCC(=O)N[C@@H](CCCCN)C(=O)N[C@@H](Cc1c[nH]cn1)C(=O)N[C@@H](CC(C)C)C(=O)N[C@@H](CC(N)=O)C(=O)N[C@@H](CO)C(=O)N[C@H](CC(=O)N[C@@H](CCC(=O)O)C(=O)N[C@@H](CCCNC(=N)N)C(=O)N[C@H](C(=O)N[C@@H](CCC(=O)O)C(=O)N[C@@H](Cc1cccc2ccccc12)C(=O)N[C@@H](CC(C)C)C(=O)N[C@@H](CCCNC(=N)N)C(=O)N[C@@H](CCCCN)C(=O)N[C@@H](CC(C)C)C(=O)N[C@@H](CC(C)C)C(=O)N[C@@H](CCC(N)=O)C(=O)N[C@@H](CC(=O)O)C(=O)N[C@H](C(=O)N[C@@H](Cc1c[nH]cn1)C(=O)N[C@@H](CCCCN)C(=O)N[C@@H](Cc1ccccc1)C(N)=O)C(C)C)C(C)C)[C@@H](C)CC` [SEQ ID NO: 28, [Nle^8, β-hIle^18,1-Nal^23, Leu^27, Lys^33] hPTH (1-34)-NH2] (H-SVSEIQL[Nle]HNLGKHLNS[β3hI]ERVE[1Nal]LRKLLQDVHKF-NH2) registered an EC50 in assay [1] of 32 nM. In addition, the hPTHR-2/hPTHR-1 in assay [2] worked out at 209.
On to `CCCC[C@H](NC(=O)[C@H](CC(C)C)NC(=O)[C@H](CCC(N)=O)NC(=O)[C@@H](NC(=O)[C@H](CCC(=O)O)NC(=O)[C@H](CO)NC(=O)[C@@H](NC(=O)[C@@H](N)CO)C(C)C)[C@@H](C)CC)C(=O)N[C@@H](Cc1c[nH]cn1)C(=O)N[C@@H](CC(N)=O)C(=O)N[C@@H](CC(C)C)C(=O)NCC(=O)N[C@@H](CCCCN)C(=O)N[C@@H](Cc1c[nH]cn1)C(=O)N[C@@H](CC(C)C)C(=O)N[C@@H](CC(N)=O)C(=O)N[C@@H](CO)C(=O)N[C@H](CC(=O)N[C@@H](CCC(=O)O)C(=O)N[C@@H](CCCNC(=N)N)C(=O)N[C@H](C(=O)N[C@@H](CCC(=O)O)C(=O)N[C@@H](Cc1cccc2ccccc12)C(=O)N[C@@H](CC(C)C)C(=O)N[C@@H](CCCNC(=N)N)C(=O)N[C@@H](CCCCN)C(=O)N[C@@H](CC(C)C)C(=O)N[C@@H](CC(C)C)C(=O)N[C@@H](CCC(N)=O)C(=O)N[C@@H](CC(=O)O)C(=O)N[C@H](C(=O)N[C@@H](Cc1c[nH]cn1)C(=O)N[C@@H](CC(N)=O)C(=O)N[C@@H](CCCCN)C(N)=O)C(C)C)C(C)C)[C@@H](C)CC` [SEQ ID NO: 30, [Nle^8, β-hIle^18,1-Nal^23, Leu^27, Lys^34] hPTH (1-34)-NH2] (H-SVSEIQL[Nle]HNLGKHLNS[β3hI]ERVE[1Nal]LRKLLQDVHNK-NH2; N-terminus assumed), for which, in assay [1], the EC50 turned out to be 17 nM. For the same compound, in assay [2], the EC50 turned out to be 0.1 nM and the hPTHR-2/hPTHR-1 is 173.
